The values below come from patent US12473289B2, “Heterocyclic compounds as delta-5 desaturase inhibitors and methods of use” (Amgen Inc., priority 2019, dated 2025).

Molecules are shown by their SMILES.

Sequence of Delta-5-Desaturase (D5D) (O60427 whole entry, species assumed): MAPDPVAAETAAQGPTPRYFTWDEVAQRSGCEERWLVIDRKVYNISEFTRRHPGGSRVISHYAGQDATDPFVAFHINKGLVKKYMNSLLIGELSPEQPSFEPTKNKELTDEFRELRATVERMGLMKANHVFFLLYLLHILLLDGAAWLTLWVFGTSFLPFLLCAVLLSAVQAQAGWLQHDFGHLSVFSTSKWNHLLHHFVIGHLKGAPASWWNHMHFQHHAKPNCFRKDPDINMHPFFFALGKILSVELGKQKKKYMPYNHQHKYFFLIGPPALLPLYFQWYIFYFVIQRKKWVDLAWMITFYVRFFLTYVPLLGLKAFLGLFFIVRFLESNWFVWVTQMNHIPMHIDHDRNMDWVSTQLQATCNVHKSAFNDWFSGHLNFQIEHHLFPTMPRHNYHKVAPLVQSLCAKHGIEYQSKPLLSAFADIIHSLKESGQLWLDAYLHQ

In this experiment the target is Delta-5-Desaturase (D5D) (Homo sapiens (Human), UniProt O60427). The experiment can be described thus: In vitro measurement of Delta-5-Desaturase inhibitory activity using DGLA-CoA and Arachidonyl-CoA mass spectrometric assays. The experiment is classed as biochemical. The note with it: membrane preparations of D5D-overexpressing HEK293 6E cells; averaged over at least two independent runs. How it is done:
In vitro Measurement of Delta-5-Desaturase Inhibitory Activity using DGLA-CoA and Arachidonyl-CoA Mass Spectrometric Assays
Membrane preparations of D5D-overexpressing HEK293 6E cells were prepared in which the total protein concentration was 5.6 mg/mL. Stock D5D membrane preparations were diluted in D5D assay buffer (25 mM 2-amino-2-(hydroxymethyl)-1,3-propanediol, pH 7.5 containing 10 mM MgCl2, 1 mM octyl glucoside (SigmaAldrich 0-8001), 1 mM tris(2-carboxyethyl)phosphine hydrochloride (SigmaAldrich 646547)) to a final D5D membrane concentration of 10 μg/mL in an assay plate containing serially diluted test compounds. To 15 μL of this D5D preparation was added 15 μL of a substrate solution (0.25 mM NADH (nicotinamide adenine dinucleotide, Roche Diag. 10107735001), 0.25 mM adenosine triphosphate (SigmaAldrich A-3377), 0.05 mM coenzyme A hydrate (SigmaAldrich C-4282), and 0.01 mM DGLA (dihomo-g-linolenic acid, Sigma E-4504) in the same D5D assay buffer. After one-hour incubation at ambient temperature acetonitrile (30 μL) was added to quench the reaction and plates were centrifuged for 10 min @3,000 rpm. Mass spectrometric analysis involved a Rapidfire 360 SPE system coupled to an ABSciex API4000 Triple Quadrupole mass spectrometer using a C18 SPE cartridge (G9203-80105) with ionization in negative mode (solvent A=100% water; solvent B=100% acetonitrile, each solvent containing 5 mM ammonium acetate). DGLA-CoA and Arachidonyl-CoA were detected by multiple reaction monitoring (MRM) of the doubly charged parent ions at m/z 526.6 and 525.6, respectively.
Sx is value from unknown sample, So is value from DMSO alone and Sc is value from no enzyme well. For CRC analysis, the % of inhibitions were analyzed with 4 Parameter Logistic Model or Sigmoidal Dose-Response Model using XLfit (IDBS, Guilford, UK). The potency of the test item was expressed as IC50 nM, corresponding to the test item concentration able to inhibit the 50% of the enzyme maximal response. IC50 values were averaged values determined by at least two independent runs.
This assay may be used to test any of the compounds described herein to assess and characterize a compound's ability to inhibit D5D.
Broadly, the IC50 is the concentration that gives 50% inhibition. A higher IC50 goes with lower potency. For the compound `COc1ccn2c(=O)c(-c3cnn(-c4ccc(F)cc4)c3)c(C(F)(F)F)nc2c1` [Example 1-17, 3-(1-(4-fluorophenyl)-1H-pyrazol-4-yl)-8-methoxy-2-(trifluoromethyl)-4H-pyrido[1,2-a]pyrimidin-4-one], the IC50 was 13.9 nM.
Then `COc1cn2c(=O)c(-c3cnn(CC(F)(F)C(F)(F)F)c3)c(C(F)(F)F)nc2cn1` [Example 39-37, 7-methoxy-3-[1-(2,2,3,3,3-pentafluoropropyl)-1H-pyrazol-4-yl]-2-(trifluoromethyl)-4H-pyrazino[1,2-a]pyrimidin-4-one], with 61 nM.
As to `COc1ccc2nc(C(F)(F)F)c(-c3cnc(OCC(F)(F)F)nc3)c(=O)n2n1` [Example 39-15, 7-methoxy-3-[2-(2,2,2-trifluoroethoxy)pyrimidin-5-yl]-2-(trifluoromethyl)-4H-pyrimido[1,2-b]pyridazin-4-one], the IC50 was > 67000 nM.
In the case of `COc1cnn2c(=O)c(-c3cnn(CC4CC(F)(F)C4)c3)c(C(F)(F)F)nc2c1` [Example 39-55, 3-{1-[(3,3-difluorocyclobutyl)methyl)-1H-pyrazol-4-yl}-8-methoxy-2-(trifluoromethyl)-4H-pyrimido[1,2-b]pyridazin-4-one], the IC50 came to 748 nM.
Regarding `COc1ccn2c(=O)c(-c3nnn(CC(F)(F)C(F)(F)F)c3I)c(C(F)(F)F)nc2c1` [Example 52, 3-[5-Iodo-1-(2,2,3,3,3-pentafluoropropyl)-1H-1,2,3-triazol-4-yl]-8-methoxy-2-(trifluoromethyl)-4H-pyrido[1,2-a]pyrimidin-4-one], it took 158 nM to reach half-maximal inhibition (IC50).
For `Cc1ccc2nc(C(F)(F)F)c(-c3cnn(CC(F)(F)C(F)(F)F)c3)c(=O)n2c1` [Example 39-19, 7-methyl-3-[1-(2,2,3,3,3-pentafluoropropyl)-1H-pyrazol-4-yl]-2-(trifluoromethyl)-4H-pyrido[1,2-a]pyrimidin-4-one] the value was 1.7 nM; for `O=c1c(-c2cnc(OCC(F)(F)F)nc2)c(C(F)(F)F)nc2ccc(Cl)cn12` [Example 39-18, 7-chloro-3-[2-(2,2,2-trifluoroethoxy)pyrimidin-5-yl]-2-(trifluoromethyl)-4H-pyrido[1,2-a]pyrimidin-4-one], > 67000 nM.
Then `N#Cc1ccn2c(=O)c(-c3cnn(CC(F)(F)C(F)(F)F)c3)c(C(F)F)nc2c1` [Example 1-85, 2-(difluoromethyl)-4-oxo-3-(1-(2,2,3,3,3-pentafluoropropyl)-1H-pyrazol-4-yl)-4H-pyrido[1,2-a]pyrimidine-8-carbonitrile], with 148 nM; and `Cc1cn2c(=O)c(-c3cnn(CC(F)(F)C(F)(F)F)c3)c(C(F)(F)F)nc2cn1` [Example 39-31, 7-methyl-3-[1-(2,2,3,3,3-pentafluoropropyl)-1H-pyrazol-4-yl]-2-(trifluoromethyl)-4H-pyrazino[1,2-a]pyrimidin-4-one], with 28 nM.
Then `COc1ccn2c(=O)c(-c3ncn(CC(F)(F)C(F)(F)F)n3)c(C(F)(F)F)nc2c1` [Example 54, 8-Methoxy-3-[1-(2,2,3,3,3-pentafluoropropyl)-1H-1,2,4-triazol-3-yl]-2-(trifluoromethyl)-4H-pyrido[1,2-a]pyrimidin-4-one], with > 67000 nM; and `COc1ccn2c(=O)c(-c3ccc(CC#N)cc3)c(C(F)(F)F)nc2c1` [Example 1-2, (4-(8-methoxy-4-oxo-2-(trifluoromethyl)-4H-pyrido[1,2-a]pyrimidin-3-yl)phenyl)acetonitrile], with 305 nM.
For `O=c1c(-c2cnn(CC(F)(F)C(F)(F)F)c2)c(C(F)(F)F)nc2cc(O)cnn12` [Example 44, 8-Hydroxy-3-[1-(2,2,3,3,3-pentafluoropropyl)-1H-pyrazol-4-yl]-2-(trifluoromethyl)-4H-pyrimido[1,2-b]pyridazin-4-one], the half-maximal inhibitory concentration (IC50) amounted to 1810 nM.
Then `Cc1cnn2c(=O)c(-c3cnn(CC4CC4)c3)c(C(F)(F)F)nc2c1` [Example 39-51, 3-[1-(cyclopropylmethyl)-1H-pyrazol-4-yl]-8-methyl-2-(trifluoromethyl)-4H-pyrimido[1,2-b]pyridazin-4-one], with 74.3 nM; and `O=c1ccn2c(=O)c(-c3ccc(OCC(F)(F)F)cc3)c(C(F)(F)F)nc2[nH]1` [Example 10-3, 7-(4-(2,2,2-trifluoroethoxy)phenyl)-8-(trifluoromethyl)-2H-pyrimido[1,2-a]pyrimidine-2,6(1H)-dione], with 900 nM.
In turn, `CC(C)c1ccn2c(=O)c(-c3ccc(OCC(F)(F)F)cc3)c(C(F)(F)F)nc2c1` [Example 1-32, 8-(2-propanyl)-3-(4-(2,2,2-trifluoroethoxy)phenyl)-2-(trifluoromethyl)-4H-pyrido[1,2-a]pyrimidin-4-one] registered an IC50 of 421 nM.
In the case of `CS(=O)(=O)c1ccn2c(=O)c(-c3ccc(OCC(F)(F)F)cc3)c(C(F)(F)F)nc2c1` [Example 19, 8-(Methylsulfonyl)-3-(4-(2,2,2-trifluoroethoxy)phenyl)-2-(trifluoromethyl)-4H-pyrido[1,2-a]pyrimidin-4-one], the IC50 was determined as 10100 nM.
For `COc1ccn2c(=O)c(-c3cnn(CCCC(F)(F)F)c3)c(C(F)(F)F)nc2n1` [Example 1-38, 8-methoxy-3-(1-(4,4,4-trifluorobutyl)-1H-pyrazol-4-yl)-2-(trifluoromethyl)-4H-pyrimido[1,2-a]pyrimidin-4-one] the value was 180 nM; for `CCCc1cc(-c2c(C(F)(F)F)nc3cc(OC)ccn3c2=O)no1` [Example 61, 8-Methoxy-3-(5-propyl-1,2-oxazol-3-yl)-2-(trifluoromethyl)-4H-pyrido[1,2-a]pyrimidin-4-one], 46.9 nM; for `COc1nc2nc(C(F)(F)F)c(-c3cnn(CC(F)(F)C(F)(F)F)c3)c(=O)n2cc1F` [Example 42, 7-Fluoro-8-methoxy-3-[1-(2,2,3,3,3-pentafluoropropyl)-1H-pyrazol-4-yl]-2-(trifluoromethyl)-4H-[1,3]diazino[1,2-a]pyrimidin-4-one], 168 nM.
Then `COc1ccn2c(=O)c(-c3cc4ccccc4o3)c(C(F)(F)F)nc2c1` [Example 1-7, 3-(1-benzofuran-2-yl)-8-methoxy-2-(trifluoromethyl)-4H-pyrido[1,2-a]pyrimidin-4-one], with 85.2 nM.
The compound `CC(=O)Nc1ccn2c(=O)c(-c3cnn(CC(F)(F)C(F)(F)F)c3)c(C(F)(F)F)nc2c1` [Example 1-82, N-(4-oxo-3-(1-(2,2,3,3,3-pentafluoropropyl)-1H-pyrazol-4-yl)-2-(trifluoromethyl)-4H-pyrido[1,2-a]pyrimidin-8-yl)acetamide] had an IC50 of 56 nM.
Then `COc1ccn2c(=O)c(-c3ncc(CCC(F)(F)F)s3)c(C(F)(F)F)nc2c1` [Example 58, 8-Methoxy-2-(trifluoromethyl)-3-[5-(3,3,3-trifluoropropyl)-1,3-thiazol-2-yl]-4H-pyrido[1,2-a]pyrimidin-4-one], with 594 nM; and `C[S+]([O-])c1ccn2c(=O)c(-c3cnn(CC(F)(F)C(F)(F)F)c3)c(C(F)(F)F)nc2c1` (stereo not shown) [Example 15-4, 8-(methylsulfinyl)-3-(1-(2,2,3,3,3-pentafluoropropyl)-1H-pyrazol-4-yl)-2-(trifluoromethyl)-4H-pyrido[1,2-a]pyrimidin-4-one], with 712 nM.
Turning to `O=c1c(-c2ccc(OCC(F)(F)F)cc2)c(C(F)(F)F)nc2cc(-c3ncco3)ccn12` [Example 29, 8-(1,3-Oxazol-2-yl)-3-(4-(2,2,2-trifluoroethoxy)phenyl)-2-(trifluoromethyl)-4H-pyrido[1,2-a]pyrimidin-4-one], the IC50 is 97.1 nM.
For `COc1ccn2c(=O)c(-c3cnc(OCC(F)(F)C(F)(F)F)nc3)c(C(F)(F)F)nc2c1` [Example 39-12, 8-methoxy-3-[2-(2,2,3,3,3-pentafluoropropoxy)pyrimidin-5-yl]-2-(trifluoromethyl)-4H-pyrido[1,2-a]pyrimidin-4-one] the value was 53.7 nM.
For `O=c1c(-c2cnn(CC(F)(F)C(F)(F)F)c2)c(C(F)(F)F)nc2cc(O)c(F)cn12` [Example 43, 7-Fluoro-8-hydroxy-3-[1-(2,2,3,3,3-pentafluoropropyl)-1H-pyrazol-4-yl]-2-(trifluoromethyl)-4H-pyrido[1,2-a]pyrimidin-4-one] the value was 742 nM; for `COc1ccn2c(=O)c(-c3ccc(O[C@@H](C)C#N)cc3)c(C(F)(F)F)nc2n1` [Example 8-7, (2S)-2-(4-(8-methoxy-4-oxo-2-(trifluoromethyl)-4H-pyrimido[1,2-a]pyrimidin-3-yl)phenoxy)propanenitrile], 4910 nM.
The compound `[2H]C([2H])([2H])Oc1ccn2c(=O)c(-c3ccc(OCC(F)(F)F)nc3)c(C(F)(F)F)nc2c1` [Example 1-64, 8-(methyloxy-d3)-3-(6-(2,2,2-trifluoroethoxy)-3-pyridinyl)-2-(trifluoromethyl)-4H-pyrido[1,2-a]pyrimidin-4-one] showed an IC50 of 21.5 nM.
